# Read-outs that look alike come from different tables or passages of the source.
# Assays:
# mouse DGAT1 = target: T1, mouse DGAT1 (Mus musculus, UniProt Q9Z2A7); assay: Mouse DGAT1 IC50 enzymatic assay; assay type: biochemical
# T1 construct: made in house
# T1 sequence (Q9Z2A7 1-498): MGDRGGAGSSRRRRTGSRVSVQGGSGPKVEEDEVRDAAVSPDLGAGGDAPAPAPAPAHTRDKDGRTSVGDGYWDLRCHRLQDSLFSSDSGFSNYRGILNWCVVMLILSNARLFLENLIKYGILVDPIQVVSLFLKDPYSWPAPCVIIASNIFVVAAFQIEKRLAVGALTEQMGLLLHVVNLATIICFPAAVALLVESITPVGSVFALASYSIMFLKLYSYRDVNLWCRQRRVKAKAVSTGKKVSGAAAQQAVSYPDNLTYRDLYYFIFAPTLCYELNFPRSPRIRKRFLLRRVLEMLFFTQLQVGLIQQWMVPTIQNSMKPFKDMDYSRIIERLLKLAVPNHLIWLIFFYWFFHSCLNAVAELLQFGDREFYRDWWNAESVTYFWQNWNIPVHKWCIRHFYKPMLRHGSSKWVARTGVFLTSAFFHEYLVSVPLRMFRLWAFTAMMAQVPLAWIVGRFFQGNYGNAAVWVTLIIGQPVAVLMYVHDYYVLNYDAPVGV
# Experimental: (§1) Expressing human DGAT1 enzyme, used diacylglycerol and 14C-labeled acyl-CoA as the substrate, choose PE Company Flashplate testing board to build DGAT1 enzyme reaction system. 14C-labeled acyl-CoA binds to diacylglycerol by covalent bonding after enzymology reaction, and generates the product of 14C-labeled triglyceride. 14C-labeled acyl-CoA substrate is dissolved in reaction solution and 14C-labeled triglyceride product combine with phospholipids of Flashplate plate bottom layer, thus effectively separate labeled substrates and products. The radioactive of 14C-labeled triglyceride which is combined with phospholipid layer is counted, and the potencies of DGAT-1 inhibition for the compounds are determined by calculating the IC50 values.
# Mouse DGAT1 activity was determined as follows:
# Mouse DGAT1 IC50 determination method: in addition to expression of mouse DGAT1, experiment method with human DGAT1 enzymatic assay is the same.
# Solubility at pH 7.4 = assay type: physicochemical; settings: pH 7.4, aqueous buffer; read-out: Sol pH 7.4
# [1] = Plasma pharmacokinetics in male SD rats; assay type: in vivo; settings: rat; for AUC(0-t) / half-life / Vd / bioavailability: male, SD, plasma; for AUC(0-t): read-out: AUC0-1 (ng · n/mL); for half-life: read-out: T1/2 (b) (converted); for Vd: intravenous, 2 mg/kg, read-out: Vdss; for bioavailability: oral, 10 mg/kg
# Experimental: (3) Pharmacokinetics of Test Compounds
# The purpose of this study is to determine the plasma pharmacokinetics of male SD rats. Two animals will receive a solution of test article in vehicle by single intravenous bolus via tail vein; the dosage is 2 mg/kg. Blood samples are taken at specified time points (0, 0.0833, 0.25, 0.5, 1, 2, 4, 7, 24 h) after dosing. Another two animals will receive a solution or suspension of TA in vehicle by oral gavage at 10 mg/kg. The schedule for sample collection is 0.5, 1, 2, 3, 4, 6, 24 h after dosing. A LC/MS/MS method is used to measure the concentration of test compound in plasma. Non-compartmental pharmacokinetic analysis is performed on the plasma concentration-time data. PK parameters of calculations are done using Phoenix WinNonlin. 6.2.1 software program.
# [2] = system: plasma triacylglycerol levels; assay: Lipid tolerance test in mice; assay type: in vivo
# Experimental: (1) Lipid Tolerance Test in Mice:
# CDI mice (30 g or so) were individually housed in hanging wire cages at 20-25° C. with a 12:12 hour light:dark cycle (Humidity: 40˜70%). The mice had ad libitum access to water. On the day of experimentation, food jars were removed from each cage 16 hours prior to rate received either vehicle or test article based on a randomization plan generated by randomization. After sixty minutes, oral administration (gavage) of corn oil at a dose volume of 6 mL/kg (time=0). Blood samples were obtained from each mouse via tail snip procedure at −0.5, 0.5, 1, 2 and 4 hours. 20 ul of blood sampling will be rapidly collected, and then is centrifuged at 7000 rpm for 10 min to determine plasma triacylglycerol levels. Triglyceride was quantitated using TG ELISA kit. All data will be analyzed using SPSS. p<0.05 is considered to be statistically significant.
# [3] = Diet induced obesity in mice; assay type: in vivo; settings: DIO mice
# Experimental: (2) Diet Induced Obesity in Mice
# Male C57bl/6J mice (6 weeks) were individually housed in hanging wire cages at 20-25° C. with a 12:12 hour light:dark cycle (Humidity: 40˜70%). After one week acclimation, the mice are fed with high fat pelleted diet (D12492i, Research Diets, Inc) and fresh water, ad libitum. Typically; C57BL/6J male mice become obese, and reach 40-50 g after 12-14 weeks of high fat diet treatment.
# Animals accept oral gavages acclimation for two weeks. Then next, they are dosed with test articles or vehicle (bid) accordingly for 7 day. Food intake and body weight are recorded every day. Data are graphed by Graph Pad Prism 5.0 and evaluated using SPSS, p<0.05 is considered to be statistically significant.
# DGAT1 [4] = target: T2, DGAT1 (Homo sapiens, UniProt O75907); assay: Human DGAT1 IC50 enzyme assay (Flashplate, 14C-labeled acyl-CoA); assay type: biochemical; design: made in house
# T2 sequence (O75907 1-488): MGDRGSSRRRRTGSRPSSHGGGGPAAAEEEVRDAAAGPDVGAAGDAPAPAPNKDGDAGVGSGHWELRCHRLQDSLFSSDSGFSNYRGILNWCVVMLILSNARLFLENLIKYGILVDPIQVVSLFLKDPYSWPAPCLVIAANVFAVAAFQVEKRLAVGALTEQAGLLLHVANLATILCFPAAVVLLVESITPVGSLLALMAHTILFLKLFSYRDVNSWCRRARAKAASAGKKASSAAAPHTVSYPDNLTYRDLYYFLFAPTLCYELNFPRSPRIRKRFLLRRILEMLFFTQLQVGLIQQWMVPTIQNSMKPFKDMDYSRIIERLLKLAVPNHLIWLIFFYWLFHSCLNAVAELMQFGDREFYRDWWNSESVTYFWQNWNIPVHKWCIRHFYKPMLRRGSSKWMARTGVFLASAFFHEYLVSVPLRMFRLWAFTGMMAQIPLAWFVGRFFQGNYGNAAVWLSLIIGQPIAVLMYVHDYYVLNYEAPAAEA
# Experimental: The ability of compounds to inhibit DGAT enzyme activity is determined by calculating IC50 values of test compounds. Ki values of DGAT1 are calculated as follows: Cheng-Prusoff equation: Ki=IC50/(1+[S]/Km)
# (1) Human DGAT1 IC50 (nM) Experiment
# Human DGAT1 activity was determined as follows:
# as §1
# DGAT1 [5] = target: T2, DGAT1; assay: In vitro assay in HEK-293 cells (13C-labeled oleic acid incorporation into TG, LC/MS/MS); assay type: cell-based; design: endogenous DGAT1-expressing catalytic ^13C-labeled oleic acid incorporate to TG; endogenous in cells; host or cells: HEK293; settings: for EC50: HEK293 cells
# Text: In Vitro Assay in HEK-293 Cells:
# We treated HEK293 cells with stable isotope ^13C-labeled oleic acid and endogenous DGAT1-expressing catalytic ^13C-labeled oleic acid incorporate to TG. The extraction and separation of cell suspension is to obtain the triglycerides composition. A LC/MS/MS method is used to measure the concentration of ^13C in TG to determine catalytic reaction rate of DGAT1, then determine the compound of DGAT1 inhibition (IC50).
# [6] = iv, 1.78-2.06 mg/kg as printed in each cell
# [7] = average of first and second, read-out: hDGAT1 IC50(nM) Average
# [8] = first determination, read-out: hDGAT1 IC50(nM) First
# [9] = second determination, read-out: hDGAT1 IC50(nM) Second
Structure (SMILES),"AUC(0-t) [1, 6]",bioavailability [1],IC50 (DGAT1 [4]; [7]),IC50 (DGAT1 [4]; [8]),IC50 (DGAT1 [4]; [9]),also measured
"O=C(O)C[C@H]1CC[C@H](c2ccc(-c3ccc(Nc4ccc(C(F)(F)F)nc4)cn3)cc2)CC1 [Pradigastat, reference compound]",42900 ng·h/mL,14.9%,49 nM,68.2 nM,29.7 nM,"IC50 (mouse DGAT1): 0.0302 µM; solubility (Solubility at pH 7.4): 22 µM; half-life [1, 6]: 2.19 h; half-life ([1]; po, 8.94-9.33 mg/kg): 2.33 h; Vd [1]: 0.15 L/kg; CI [1]: 0.70 mL/min/kg; Inhibtion % @ 2 h 1 MPK PO [2]: 34% inh; body weight ([3]; 30 mpk BID): increased slight; food intake ([3]; 30 mpk BID): increased slight; 7 days Cumulative Body Weight Change (%) ([3]; 30mpk BID): 1.72%; 7 days Cumulative Food Intake Change (%) ([3]; 30mpk BID): 5.85%; EC50 (DGAT1 [5]): 0.00365 µM"
"Cc1cc(N2CCOc3ncnc(N)c3C2=O)cc(C)c1-c1cn(CC(C)(C)F)nc1C [Compound 97, 4-amino-6-(4-(1-(2-fluoro-2-methylpropyl)-3-methyl-1H-pyrazol-4-yl)-3,5-dimethylphenyl)-7,8-dihydropyrimido[5,4-f][1,4]oxazepin-5(6H)-one]",–,–,26.9 nM,30.3 nM,23.4 nM,–
"Nc1ncnc2c1C(=O)N(c1ccc(-n3ccn(CC(=O)O)c3=O)c(Cl)c1)CCO2 [Compound 28, 2-(3-(4-(4-amino-5-oxo-7,8-dihydropyrimido [5,4-f][1,4]oxazepin-6(5H)-yl)-2-chlorophenyl)-2-oxo-2,3-dihydro-1H-imidazol-1-yl)acetic acid]",–,–,41.8 nM,45.6 nM,37.9 nM,–
"Nc1ncnc2c1C(=O)N(c1ccc3c(c1)CCC(OCC(F)(F)F)C3)CCO2 (single isomer, unassigned) [Compound 108 (peak2), 4-amino-6-(6-(2,2,2-trifluoroethoxy)-5,6,7,8-tetrahydonaphthalen-2-yl)-7,8-dihydropyrimido[5,4-f][1,4]oxazepin-5-(6H)-one]",–,–,52.6 nM,56.4 nM,48.8 nM,–
"Cc1cc(N2CCOc3ncnc(N)c3C2=O)cc(C)c1-c1cn(CC(F)F)nc1C [Compound 43, 4-amino-6-(4-(1-(2,2-difluoroethyl)-3-methyl-1H-pyrazol-4-yl)-3,5-dimethylphenyl)-7,8-dihydropyrimido[5,4-f][1,4]oxazepin-5(6H)-one]",–,–,17.6 nM,18.5 nM,16.7 nM,–

# The next lines start with results.
"AUC(0-t) [1, 6]",bioavailability [1],IC50 (DGAT1 [4]; [7]),IC50 (DGAT1 [4]; [8]),IC50 (DGAT1 [4]; [9]),Structure (SMILES),also measured
17700 ng·h/mL,56.8%,31.7 nM,27 nM,36.4 nM,"Cc1cc(N2CCOc3ncnc(N)c3C2=O)cc(C)c1-c1ccc2ccn(CC(F)(F)F)c(=O)c2c1 [Compound 105, 4-amino-6-(3,5-dimethyl-4-(1-oxo-2-(2,2,2-trifluoroethyl)-1,2-dihydroisoquinolin-7-yl)phenyl)-7,8-dihydropyrimido[5,4-f][1,4]oxazepin-5-(6H)-one]","IC50 (mouse DGAT1): 0.0336 µM; solubility (Solubility at pH 7.4): 70 µM; half-life [1, 6]: 3.81 h; half-life ([1]; po, 8.94-9.33 mg/kg): 2.93 h; Vd [1]: 0.54 L/kg; CI [1]: 1.96 mL/min/kg; Inhibtion % @ 2 h 1 MPK PO [2]: 118% inh; 7 days Cumulative Body Weight Change (%) ([3]; 10mpk BID): −1.06%; 7 days Cumulative Food Intake Change (%) ([3]; 10mpk BID): −8.56%; EC50 (DGAT1 [5]): 0.00364 µM; cell activity (DGAT1 [5]; compared with Pradigastat): better cell activity"
2920 ng·h/mL,109%,–,–,–,"Nc1ncnc2c1C(=O)N(c1ccc([C@H]3CC[C@H](CC(=O)O)CC3)cc1)CCO2 [PF-04620110, reference compound]",–
–,–,79.6 nM,84.6 nM,74.5 nM,"Nc1ncnc2c1C(=O)N(c1ccc(-c3cnn(CCC(=O)O)c3)c(F)c1)CCO2 [Compound 37, 3-(4-(4-(4-amino-5-oxo-7,8-dihydropyrimido[5,4-f][1,4]oxazepin-6(5H)-yl)-2-fluorophenyl)-1H-pyrazol-1-yl) propanoic acid]",–
–,–,23.5 nM,23.6 nM,23.4 nM,"CC(C)(F)CN1CCN(c2ccc(N3CCOc4ncnc(N)c4C3=O)cc2Cl)C1=O [Compound 31, 4-amino-6-(3-chloro-4-(3-(2-fluoro-2-methylpropyl)-2-oxoimidazolidin-1-yl)phenyl)-7,8-dihydropyrimido[5,4-f][1,4]oxazepin-5(6H)-one]",–
–,–,41.5 nM,39 nM,44.1 nM,"CC(C)C(C(=O)O)n1cc(-c2ccc(N3CCOc4ncnc(N)c4C3=O)cc2Cl)cn1 (centres unmarked) [Compound 65, 2-(4-(4-(4-amino-5-oxo-7,8-dihydropyrimido [5,4-f][1,4]oxazepin-6(5H)-yl)-2-chlorophenyl)-1H-pyrazol-1-yl)-3-methylbutanoic acid]",–

# Reference: patent US9809604B2, “DGAT1 inhibitor and preparation method and use thereof” (Qingdao Huanghai Pharmaceutical Co., Ltd., priority 2013, dated 2017)
